Assay results published in US9539312B2 (UNIVERSIDAD NACIONAL AUTÓNOMA DE MÉXICO, priority 2012, dated 2017).
Like-named read-outs stand apart in the source and are kept apart here. Where no end group is shown, it is not given here.

What was measured:
[1] = phase II, cited from earlier work
CETP = molecular target: T1, CETP (Homo sapiens, UniProt P11597); details: phase II, group with the highest dose; cited from earlier work
T1 construct: host or cells: trial subjects' plasma (not described)
T1 sequence (P11597 18-493): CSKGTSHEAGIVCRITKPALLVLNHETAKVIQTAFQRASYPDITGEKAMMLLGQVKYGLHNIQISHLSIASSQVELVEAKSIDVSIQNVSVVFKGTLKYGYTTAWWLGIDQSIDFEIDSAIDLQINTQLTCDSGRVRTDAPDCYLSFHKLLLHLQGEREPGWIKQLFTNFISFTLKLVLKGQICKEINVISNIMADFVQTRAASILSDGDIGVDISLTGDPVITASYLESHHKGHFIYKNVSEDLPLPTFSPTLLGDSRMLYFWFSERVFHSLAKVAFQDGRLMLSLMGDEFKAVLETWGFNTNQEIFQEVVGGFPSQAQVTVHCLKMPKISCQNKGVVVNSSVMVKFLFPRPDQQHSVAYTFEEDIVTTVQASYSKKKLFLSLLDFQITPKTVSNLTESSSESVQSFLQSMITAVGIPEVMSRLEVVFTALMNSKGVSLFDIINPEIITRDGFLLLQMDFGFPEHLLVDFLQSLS

[2] = phase III, treatment group receiving combination with atorvastatin; cited from earlier work
[3] = molecular target: C-terminus peptide of CETP (Homo sapiens, UniProt P11597)
[4] = pH 9.5
[5] = molecular target: 10 nm-diameter nascent discoid HDL particles; details: cited from earlier work

COc1cc(F)c(C(C)C)cc1-c1ccc(C(F)(F)F)cc1CN1C(=O)O[C@H](c2cc(C(F)(F)F)cc(C(F)(F)F)c2)[C@@H]1C [Anacetrapib]
blood pressure ([1]; all cohorts): without the corresponding increase in blood pressure
increase in HDL, average ([1]; dose 10 mg): 44%
increase in HDL, average ([1]; dose 40 mg): 86%
increase in HDL, average ([1]; dose 150 mg): 139%
increase in HDL, average ([1]; dose 300 mg): 133%

CCC(CC)CC1(C(=O)Nc2ccccc2SC(=O)C(C)C)CCCCC1 [Dalcetrapib]
CETP activity decreased (CETP): 36%
HDL cholesterol increased (CETP): 34%

CCOC(=O)N1c2ccc(C(F)(F)F)cc2[C@@H](N(Cc2cc(C(F)(F)F)cc(C(F)(F)F)c2)C(=O)OC)C[C@H]1CC [Torcetrapib]
mortality and cardiovascular events [2]: cases of mortality and cardiovascular events

CCCCCCCCCCCC(=O)OC[C@@H](O)COP(=O)([O-])OCC[N+](C)(C)C [lysophosphatidylcholine (C12), 1-Lauril-2-Hydroxi-snglycero 3 phosphocholine]
secondary structure of the antigen peptide [3]: favored the presentation of the α-helix structure

CHLLVDFLQSLS [Y-helix]
solubility and monomeric state of peptide [4]: allows solubility and keeps the peptide in monomeric state

B1: CETP: proatherogenic hydrophobic glycoprotein that transfers cholesteryl esters and triglycerides among lipoproteins (protein, UniProt P11597 18-493, looked up)
Cholesteryl ester transfer …: T1 sequence (P11597 18-493)
Kd [5]: 20 to 120 nM
